Measured values as given in ChEMBL document CHEMBL3351690, “Design, synthesis and structure--activity relationship (SAR) studies of imidazo[4,5-b]pyridine derived purine isosteres and their potential as cytotoxic agents” (Eur J Med Chem, 2015).

What was measured:
[1] = tested on: MDA-MB-231; experiment: Cytotoxicity against paclitaxel-resistant human MDA-MB-231 cells after 24 hrs by MTT assay; type: functional, cell-based; details: MDA-MB-231, 24 h
[2] = Stability in human liver microsomes at 1 uM pre-incubated for 5 mins in presence of NADPH and measured after 45 mins by LC/MS method; type: ADME; details: read-out: Stability
[3] = Stability in mouse liver microsomes at 1 uM pre-incubated for 5 mins in presence of NADPH and measured after 45 mins by LC/MS method; type: ADME; details: read-out: Stability
[4] = tested on: MDA-MB-231; experiment: Inhibition of cell proliferation of paclitaxel-resistant human MDA-MB-231 cells at 10 uM after 24 hrs by MTT assay; type: functional; details: MDA-MB-231, 24 h
[5] = Cytotoxicity against human HL60 cells after 24 hrs by MTT assay; type: functional, cell-based; details: HL-60, 24 h
[6] = Cytotoxicity against human MES-SA/Dx5 cells after 24 hrs by MTT assay; type: functional, cell-based; details: MES-SA/Dx5, 24 h
[7] = Cytotoxicity against human MES-SA cells after 24 hrs by MTT assay; type: functional, cell-based
[8] = Cytotoxicity against human MDA435 cells after 24 hrs by MTT assay; type: functional, cell-based; details: MDA-MB-435, 24 h

SMILES | IC50 [1] | further results
c1ccc(-c2nc3cccnc3n2C2CCCC2)cc1 | 3000 nM | –
c1ccc(-c2nc3ncccc3n2C2CCCC2)cc1 | 7000 nM | –
Cn1c(-c2ccccc2)nc2cccnc21 | 4100 nM | –
Fc1ccc(-c2nc3cccnc3n2C2CCCC2)cc1 | 500 nM | –
Fc1cc(F)cc(-c2nc3cccnc3n2C2CCCC2)c1 | 138 nM | –
Fc1cc(F)cc(-c2nc3ncccc3n2C2CCCCC2)c1 | 3800 nM | –
Cn1c(-c2cc(F)cc(F)c2)nc2ncccc21 | 2700 nM | –
FC(F)(F)c1cc(-c2nc3cccnc3n2C2CCCC2)cc(C(F)(F)F)c1 | 112 nM | –
FC(F)(F)Oc1cccc(-c2nc3cccnc3n2C2CCCC2)c1 | 262 nM | –
Fc1cccc(-c2nc3cccnc3n2C2CCCCC2)c1 | 342 nM | –
Cc1ccc(-c2nc3cccnc3n2C2CCCCC2)cc1 | 7000 nM | –
CCS(=O)(=O)c1cccc(-c2nc3cccnc3n2C2CCCCC2)c1 | 164 nM | –
Cc1cccc(-c2nc3cccnc3n2C2CCCC2)c1Cl | 646 nM | –
CN(C)c1cccc(-c2nc3cccnc3n2C2CCCC2)c1 | 455 nM | –
N#Cc1ccc(-c2nc3cccnc3n2C2CCCC2)cc1F | 2000 nM | –
COc1ccc(-c2nc3cccnc3n2C2CCCCC2)cc1 | 112 nM | –
c1ccc(Oc2ccc(-c3nc4cccnc4n3C3CCCC3)cc2)cc1 | > 10000 nM | –
O=C(O)c1ccc(-c2nc3cccnc3n2C2CCCC2)cc1 | 600 nM | remaining at 0.75 h, 1 µM [2]: 80%; remaining at 0.75 h, 1 µM [3]: 80%
COC(=O)c1ccc(-c2nc3cccnc3n2C2CCCC2)cc1 | 350 nM | remaining at 0.75 h, 1 µM [2]: 52%; remaining at 0.75 h, 1 µM [3]: 52%; inhibition at 10 µM [4]: 25%

SMILES | IC50 [1] | further results
O=C(NC1CC1)c1ccc(-c2nc3cccnc3n2C2CCCC2)cc1 | 115 nM | remaining at 0.75 h, 1 µM [2]: 42%; remaining at 0.75 h, 1 µM [3]: 42%; inhibition at 10 µM [4]: 42%
CCNC(=O)c1ccc(-c2nc3cccnc3n2C2CCCC2)cc1 | 320 nM | –
O=C(NCc1ccccc1)c1ccc(-c2nc3cccnc3n2C2CCCC2)cc1 | 620 nM | –
NC(=O)c1ccc(-c2nc3cccnc3n2C2CCCC2)cc1 | 8000 nM | –
CN(C)C(=O)c1ccc(-c2nc3cccnc3n2C2CCCC2)cc1 | 520 nM | –
c1cnc2c(c1)nc(-c1cncnc1)n2C1CCCC1 | > 10000 nM | –
Cc1nnc(-c2ccc(-c3nc4cccnc4n3C3CCCC3)cc2)o1 | 21 nM | remaining at 0.75 h, 1 µM [2]: 75%; remaining at 0.75 h, 1 µM [3]: 75%; IC50 [5]: 70 nM; IC50 [6]: 80 nM; IC50 [7]: 25 nM; IC50 [8]: 28 nM; inhibition at 10 µM [4]: 77.3%
CN(C)c1ncc(-c2nc3cccnc3n2C2CCCC2)cn1 | 45 nM | –
Cc1ccsc1-c1nc2cccnc2n1C1CCCC1 | 138 nM | –
COc1ncc(-c2nc3cccnc3n2C2CCCC2)c(OC)n1 | > 10000 nM | –
c1ccc(Cn2nccc2-c2nc3cccnc3n2C2CCCC2)cc1 | 348 nM | –
Cc1cc(-c2nc3cccnc3n2C2CCCC2)cnc1F | 70 nM | –
COc1ccc(-c2nc3cccnc3n2C2CCCC2)cn1 | 219 nM | –
c1cnc2c(c1)nc(-c1ccc3c(c1)OCC3)n2C1CCCC1 | 513 nM | –
Cn1ccc2cc(-c3nc4cccnc4n3C3CCCC3)ccc21 | 90 nM | –
c1cnc2c(c1)nc(-c1ccc(-c3nnn[nH]3)cc1)n2C1CCCC1 | 765 nM | –
c1cncc(-c2ccc(-c3nc4cccnc4n3C3CCCC3)cc2)c1 | > 10000 nM | –
c1cnc2c(c1)nc(-c1ccc(-c3nnco3)cc1)n2C1CCCC1 | 87 nM | –
CC(=O)O[C@H]1C(=O)[C@@]2(C)[C@H]([C@H](OC(=O)c3ccccc3)[C@]3(O)C[C@H](OC(=O)[C@H](O)[C@@H](NC(=O)c4ccccc4)c4ccccc4)C(C)=C1C3(C)C)[C@]1(OC(C)=O)CO[C@@H]1C[C@@H]2O [PACLITAXEL] | 457 nM | IC50 [5]: 7 nM; IC50 [6]: 5100 nM; IC50 [7]: 8 nM
